Reference: ChEMBL document CHEMBL1152332, “Calothrixins, a new class of human DNA topoisomerase I poisons” (J Nat Prod, 2009)
pIC50: −log10 of the molar value. The source made the active and inactive calls. The calls are words filed in the database; no cut-off is given here.

Legend:
[1] = target: T1, DNA topoisomerase 1 (Homo sapiens) (UniProt P11387); experiment: Reversal of drug-stabilized human DNA topoisomerase 1-DNA binary complex at 5 uM within 5 mins by polyacrylamide gel electrophoresis in presence of 0.35 M NaCl
T1 sequence (whole entry): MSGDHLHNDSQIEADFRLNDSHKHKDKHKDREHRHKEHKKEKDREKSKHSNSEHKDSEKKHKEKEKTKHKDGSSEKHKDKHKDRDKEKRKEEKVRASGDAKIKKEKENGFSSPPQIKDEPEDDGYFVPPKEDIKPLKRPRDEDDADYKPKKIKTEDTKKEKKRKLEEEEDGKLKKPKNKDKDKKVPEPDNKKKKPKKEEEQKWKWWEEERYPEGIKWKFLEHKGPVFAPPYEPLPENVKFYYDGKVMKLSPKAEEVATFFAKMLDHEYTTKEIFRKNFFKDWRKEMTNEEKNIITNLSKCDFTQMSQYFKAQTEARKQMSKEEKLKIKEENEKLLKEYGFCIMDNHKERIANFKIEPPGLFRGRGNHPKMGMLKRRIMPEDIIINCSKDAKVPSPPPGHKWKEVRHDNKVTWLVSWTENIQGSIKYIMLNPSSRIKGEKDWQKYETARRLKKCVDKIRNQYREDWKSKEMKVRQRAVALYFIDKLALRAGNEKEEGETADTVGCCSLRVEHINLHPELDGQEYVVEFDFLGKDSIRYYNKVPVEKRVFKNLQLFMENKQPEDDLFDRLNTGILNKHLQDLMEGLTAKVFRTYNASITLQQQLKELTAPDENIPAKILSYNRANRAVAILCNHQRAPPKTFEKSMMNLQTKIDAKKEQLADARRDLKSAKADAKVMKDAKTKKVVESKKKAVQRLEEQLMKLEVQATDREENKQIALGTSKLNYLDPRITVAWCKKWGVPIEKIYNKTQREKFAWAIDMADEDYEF

[2] = target: T1, DNA topoisomerase 1 (Homo sapiens); experiment: Induction of human DNA topoisomerase 1-mediated DNA cleavage at 1 to 10 uM by polyacrylamide gel electrophoresis
[3] = system: CCRF-CEM; experiment: Cell cycle arrest in human CCRF-CEM cells assessed as accumulation at subG1 phase at 1 uM treated for 3 hrs followed by drug washout and 15 hrs incubation in drug free medium by flow cytometry; assay type: functional
[4] = system: CCRF-CEM; experiment: Cell cycle arrest in human CCRF-CEM cells assessed as accumulation at G0 phase at 0.1 uM treated for 3 hrs measured for 15 hrs after nocodazole treatment by flow cytometry in presence of mitotic inhibitor nocodazole; assay type: functional
[5] = system: CCRF-CEM; experiment: Cell cycle arrest in human CCRF-CEM cells assessed as accumulation at G2/M phase at 1 uM treated for 3 hrs followed by drug washout and 15 hrs incubation in drug free medium by flow cytometry; assay type: functional
[6] = system: CCRF-CEM; experiment: Cell cycle arrest in human CCRF-CEM cells assessed as accumulation at subG1 phase at 1 uM treated for 3 hrs measured for 15 hrs after nocodazole treatment by flow cytometry in presence of mitotic inhibitor nocodazole; assay type: functional
[7] = system: CCRF-CEM; experiment: Cell cycle arrest in human CCRF-CEM cells assessed as accumulation at S phase at 0.1 uM treated for 3 hrs measured for 15 hrs after nocodazole treatment by flow cytometry in presence of mitotic inhibitor nocodazole; assay type: functional
[8] = system: CCRF-CEM; experiment: Cell cycle arrest in human CCRF-CEM cells assessed as accumulation at G0 phase at 1 uM treated for 3 hrs measured for 15 hrs after nocodazole treatment by flow cytometry in presence of mitotic inhibitor nocodazole; assay type: functional
[9] = system: CCRF-CEM; experiment: Cell cycle arrest in human CCRF-CEM cells assessed as accumulation at subG1 phase at 10 uM treated for 3 hrs measured for 15 hrs after nocodazole treatment by flow cytometry in presence of mitotic inhibitor nocodazole; assay type: functional
[10] = system: CCRF-CEM; experiment: Cell cycle arrest in human CCRF-CEM cells assessed as accumulation at subG1 phase at 0.1 uM treated for 3 hrs followed by drug washout and 15 hrs incubation in drug free medium by flow cytometry; assay type: functional
[11] = system: CCRF-CEM; experiment: Cell cycle arrest in human CCRF-CEM cells assessed as accumulation at G2/M phase at 10 uM treated for 3 hrs measured for 15 hrs after nocodazole treatment by flow cytometry in presence of mitotic inhibitor nocodazole; assay type: functional
[12] = system: CCRF-CEM; experiment: Cell cycle arrest in human CCRF-CEM cells assessed as accumulation at S phase at 1 uM treated for 3 hrs measured for 15 hrs after nocodazole treatment by flow cytometry in presence of mitotic inhibitor nocodazole; assay type: functional
[13] = system: CCRF-CEM; experiment: Cytotoxicity against p38-proficient human CCRF-CEM cells after 3 days by MTT assay; assay type: functional, cell-based; details: 72 h
[14] = system: CCRF-CEM; experiment: Cell cycle arrest in human CCRF-CEM cells assessed as accumulation at G0 phase at 0.1 uM treated for 3 hrs followed by drug washout and 15 hrs incubation in drug free medium by flow cytometry; assay type: functional
[15] = system: CCRF-CEM; experiment: Cell cycle arrest in human CCRF-CEM cells assessed as accumulation at G2/M phase at 1 uM treated for 3 hrs measured for 15 hrs after nocodazole treatment by flow cytometry in presence of mitotic inhibitor nocodazole; assay type: functional
[16] = system: CCRF-CEM; experiment: Cell cycle arrest in human CCRF-CEM cells assessed as accumulation at subG1 phase at 10 uM treated for 3 hrs followed by drug washout and 15 hrs incubation in drug free medium by flow cytometry; assay type: functional
[17] = system: CCRF-CEM; experiment: Cell cycle arrest in human CCRF-CEM cells assessed as accumulation at S phase at 10 uM treated for 3 hrs measured for 15 hrs after nocodazole treatment by flow cytometry in presence of mitotic inhibitor nocodazole; assay type: functional
[18] = system: CCRF-CEM; experiment: Cell cycle arrest in human CCRF-CEM cells assessed as accumulation at S phase at 0.1 uM treated for 3 hrs followed by drug washout and 15 hrs incubation in drug free medium by flow cytometry; assay type: functional
[19] = system: CCRF-CEM; experiment: Cell cycle arrest in human CCRF-CEM cells assessed as accumulation at G2/M phase at 0.1 uM treated for 3 hrs measured for 15 hrs after nocodazole treatment by flow cytometry in presence of mitotic inhibitor nocodazole; assay type: functional
[20] = system: CCRF-CEM; experiment: Cell cycle arrest in human CCRF-CEM cells assessed as accumulation at G0 phase at 10 uM treated for 3 hrs followed by drug washout and 15 hrs incubation in drug free medium by flow cytometry; assay type: functional
[21] = system: CCRF-CEM; experiment: Cell cycle arrest in human CCRF-CEM cells assessed as accumulation at S phase at 10 uM treated for 3 hrs followed by drug washout and 15 hrs incubation in drug free medium by flow cytometry; assay type: functional
[22] = system: CCRF-CEM; experiment: Cell cycle arrest in human CCRF-CEM cells assessed as accumulation at G0 phase at 1 uM treated for 3 hrs followed by drug washout and 15 hrs incubation in drug free medium by flow cytometry; assay type: functional
[23] = system: CCRF-CEM; experiment: Cell cycle arrest in human CCRF-CEM cells assessed as accumulation at G2/M phase at 0.1 uM treated for 3 hrs followed by drug washout and 15 hrs incubation in drug free medium by flow cytometry; assay type: functional
[24] = system: CCRF-CEM; experiment: Cell cycle arrest in human CCRF-CEM cells assessed as accumulation at G0 phase at 10 uM treated for 3 hrs measured for 15 hrs after nocodazole treatment by flow cytometry in presence of mitotic inhibitor nocodazole; assay type: functional
[25] = system: CCRF-CEM; experiment: Cell cycle arrest in human CCRF-CEM cells assessed as accumulation at G2/M phase at 10 uM treated for 3 hrs followed by drug washout and 15 hrs incubation in drug free medium by flow cytometry; assay type: functional
[26] = system: CCRF-CEM; experiment: Cell cycle arrest in human CCRF-CEM cells assessed as accumulation at subG1 phase at 0.1 uM treated for 3 hrs measured for 15 hrs after nocodazole treatment by flow cytometry in presence of mitotic inhibitor nocodazole; assay type: functional
[27] = system: CCRF-CEM; experiment: Cell cycle arrest in human CCRF-CEM cells assessed as accumulation at S phase at 1 uM treated for 3 hrs followed by drug washout and 15 hrs incubation in drug free medium by flow cytometry; assay type: functional

Activity [1] | Activity [2] | SMILES | Activity [3] | Activity [4] | Activity [5] | Activity [6] | Activity [7] | Activity [8] | Activity [9] | Activity [10] | Activity [11] | Activity [12] | pIC50 [13] | Activity [14] | Activity [15] | Activity [16] | Activity [17] | Activity [18] | Activity [22] | Activity [27] | other results
Active | 18% | O=C1c2c[n+]([O-])c3ccccc3c2C(=O)c2[nH]c3ccccc3c21 [CALOTHRIXIN A] | 16% | 8.3% | 19% | 4.2% | 4% | 13.3% | 2.1% | 10.3% | 37% | 8.7% | 6.70 | 51.4% | 29.5% | 9.1% | 7.5% | 17.3% | 47.3% | 15.3% | Activity [19]: 16.8%; Activity [20]: 50.1%; Activity [21]: 15.3%; Activity [23]: 19.4%; Activity [24]: 13%; Activity [25]: 23.6%; Activity [26]: 7.7%
Active | 24% | O=C1c2[nH]c3ccccc3c2C(=O)c2cnc3ccccc3c21 [CALOTHRIXIN B] | 7.9% | 25.3% | 16.5% | 4.6% | 4.5% | 7.4% | 6.4% | 7.5% | 18.2% | 4.8% | 5.98 | 55.6% | 18.8% | 11.2% | 4.6% | 17.6% | 55.6% | 18.2% | Activity [19]: 61.5%; Activity [20]: 51.4%; Activity [21]: 17%; Activity [23]: 17.3%; Activity [24]: 7.7%; Activity [25]: 18.6%; Activity [26]: 6.2%

More lines, now with the values behind:

SMILES | Activity [1] | Activity [2] | Activity [3] | Activity [4] | Activity [5] | Activity [6] | Activity [7] | Activity [8] | Activity [9] | Activity [10] | Activity [11] | Activity [12] | pIC50 [13] | Activity [14] | Activity [15] | Activity [16] | Activity [17] | Activity [18] | Activity [22] | Activity [27] | other results
CO[n+]1cc2c(c3ccccc31)C(=O)c1[nH]c3ccccc3c1C2=O | Active | 11% |  |  |  |  |  |  |  |  |  |  |  |  |  |  |  |  |  |  | 
CC[C@@]1(O)C(=O)OCc2c1cc1n(c2=O)Cc2cc3ccccc3nc2-1 [CAMPTOTHECIN] |  |  | 18% |  | 28.4% | 17.5% |  | 23.6% |  |  |  | 10.3% | 7.40 |  | 21.7% |  |  |  | 34.6% | 15.5% | 
C[n+]1cc2c(c3ccccc31)C(=O)c1[nH]c3ccccc3c1C2=O.[I-] [N-METHYLCALOTHRIXIN B] | Active | 11% | 10.6% | 5.1% | 19.6% | 5.4% | 3.2% | 6.9% | 6.9% | 9.8% | 21.7% | 4.9% | 5.29 | 50.3% | 20.1% | 11.8% | 11.3% | 17.8% | 51% | 17% | Activity [19]: 18.8%; Activity [20]: 51.7%; Activity [21]: 15.1%; Activity [23]: 20.2%; Activity [24]: 11.6%; Activity [25]: 19%; Activity [26]: 3.7%
